Values joined by “and” are separate entries in the source; they are usually repeats but may differ in a detail not shown here. Identical values can stand only once.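 Each compound was tested at five concentrations against cells in 96-well plates for 48 hours. Here, GI50 denotes the concentration required for 50% inhibition of growth. The concentration for full growth arrest is given as TGI.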
Columns and labels:
Assay in all cases: NCI anticancer screen, dose series, 48 h
M14 melanoma = system: M14 melanoma
UACC-62 melanoma = system: UACC-62 melanoma
NCI-H23 lung = system: NCI-H23 lung
MDA-MB-231 breast = system: MDA-MB-231 breast
HCC-2998 colon = system: HCC-2998 colon
NCI-H522 lung = system: NCI-H522 lung
HCT-116 colon = system: HCT-116 colon
MALME-3M melanoma = system: MALME-3M melanoma
K-562 leukemia = system: K-562 leukemia
HL-60(TB) leukemia = system: HL-60(TB) leukemia

Structure (SMILES)	TGI (M14 melanoma) [µM]	TGI (UACC-62 melanoma) [µM]	TGI (NCI-H23 lung) [µM]	TGI (MDA-MB-231 breast) [µM]	TGI (HCC-2998 colon) [µM]	TGI (NCI-H522 lung) [µM]	TGI (HCT-116 colon) [µM]	TGI (MALME-3M melanoma)	TGI (K-562 leukemia) [µM]	TGI (HL-60(TB) leukemia) [µM]	GI50 (M14 melanoma)	GI50 (UACC-62 melanoma)	GI50 (NCI-H23 lung)	GI50 (MDA-MB-231 breast)	GI50 (HCC-2998 colon)	GI50 (NCI-H522 lung)	GI50 (HCT-116 colon)	GI50 (MALME-3M melanoma)	GI50 (K-562 leukemia) [µM]	GI50 (HL-60(TB) leukemia)
O=[N+]([O-])c1oc2ccc3ccccc3c2c1CCO	5.24	12.5	17	59.3	1.24	3.77	> 29.7	3.84 µM	> 100	13										
COc1ccc(-c2cn(-c3cc(OC)c(OC)c(OC)c3)c(=O)[nH]2)cc1OC	> 100	> 100	> 100	> 100	> 100	> 100	> 100	> 100 µM	> 100	> 100	> 100 µM	> 100 µM	> 100 µM	> 100 µM	> 100 µM	> 100 µM	> 100 µM	> 100 µM	> 100	> 100 µM
Cc1ccsc1-c1ccc2c(c1)COC2(CCCN(C)C)c1ccc(F)cc1 (stereo not given)	3.46	4.04	18.1	6	3.25	12.4	3.7	2.8 µM	8.05	4.59	1.73 µM	1.89 µM	5.39 µM	1.84 µM	1.71 µM	3.02 µM	1.88 µM	1.39 µM	2.46	1.93 µM
CNC(=O)c1cccc(C#Cc2cncnc2Nc2ccc(OCc3cccc(F)c3)c(Cl)c2)c1	> 25	> 25	24.2	> 19.5	> 25	> 25	13.6	24.6 µM	> 25	> 25	10.7 µM	16 µM	7.5 µM	5.95 µM	9.15 µM	5.29 µM	5.11 µM	9.31 µM	9.7	> 25 µM
Cc1ccccc1C(C(=O)NC1CCCCC1)N(C(=O)CNc1ncccc1F)c1cccc(F)c1 (stereo not given)	> 100	> 100	> 100	> 100	> 100	> 100	> 100	> 100 µM	> 100	> 100	> 100 µM	> 75.4 µM	> 57.8 µM	25.1 µM	> 100 µM	74.9 µM	96.9 µM	> 100 µM	> 100	> 100 µM
CCCN(CCC)c1ccc(C=O)c(C)c1	> 100	> 100	> 100	> 100	> 100	> 100	> 100	> 100 µM	> 100	> 84.4	44.8 µM	28.4 µM	35.8 µM	41.3 µM	52.4 µM	37.4 µM	35 µM	43.8 µM	68.7	30.8 µM
Cc1sc2c(c1C)C(c1ccc(Cl)cc1)=N[C@@H](CC(=O)NCCCN1CCN(C)CC1)c1nnc(C)n1-2	> 100	> 100	> 100	> 100	> 100	> 100	> 100	> 100 µM	> 100	5.7	1.24 µM	0.214 µM	5.67 µM	0.198 µM	2.55 µM	0.0746 µM	0.579 µM	0.992 µM	0.299	0.0583 µM
OCC1CCCC1O (stereo not given)	> 100	> 100	> 100	> 100	> 100	> 100	> 100	> 100 µM	> 100	> 100										
Cn1cc(C2=C(c3cn(CCCCCO)c4ccccc34)C(=O)NC2=O)c2ccccc21	> 25	9.17	16.5	> 24	> 20.6	10.6	> 25	16.3 µM	> 25	11.5	5.38 µM	3.99 µM	5.34 µM	8.93 µM	7.47 µM	2.27 µM	4.67 µM	6.9 µM	2.16	4.08 µM
COc1cc(/C=C/C(=O)c2c(-c3ccc(F)cc3)nc3sc(C)nn23)cc(OC)c1OC	8.1	4.44	9.55	8.51	3.96	3.19	3.07	16.9 µM	15	6.17	3.05 µM	1.94 µM	2.98 µM	1.99 µM	2.12 µM	1.55 µM	1.64 µM	4.26 µM	2.61	2.44 µM
CC1Cc2ccccc2N1C(=O)Cc1nc(N2CCOCC2)cc(=O)[nH]1 (stereo not given)	> 100	> 100	> 100	> 100	> 100	> 100	> 100	61.9 µM and > 79.1 µM	> 100	> 100	13.8 µM and 27 µM	0.856 µM and 1.73 µM	48.7 µM and > 91.5 µM	26.4 µM and 31.3 µM	18.1 µM and 28.6 µM	25.6 µM and 39.7 µM	6.47 µM and 24.8 µM	3.18 µM and 7.81 µM	> 100	20.7 µM and 25.5 µM
Cc1ccc(OCCOCCOCCOCCOCCOc2ccc(C)n(O)c2=S)c(=S)n1O	0.43	12.5	> 100	> 100	46.9	> 100	27.5	> 34.6 µM	> 100	0.638	0.0619 µM	0.0815 µM	0.08 µM	0.062 µM	0.444 µM	0.0386 µM	0.0302 µM	0.109 µM	0.0383	0.0441 µM
Cn1c(=O)c(Oc2ccc(F)cc2F)cc2cnc(NC3CCOCC3)nc21	> 25	> 25	> 25	> 25	> 25	> 25	> 25	> 25 µM	> 25	> 25	> 25 µM	> 25 µM	> 25 µM	> 25 µM	> 25 µM	> 25 µM	> 25 µM	> 25 µM	> 25	> 25 µM
CC/C=C\C[C@H](O)C/C=C1/C(=O)C=C[C@@H]1C/C=C\CCCCO	6.17	5.46	5.95	14.9	3.38	3.95	3.33	7.48 µM	> 100	6.88	2.06 µM	1.87 µM	2.26 µM	3.92 µM	1.83 µM	1.74 µM	1.7 µM	2.44 µM	2.91	2.29 µM
COc1cc(C2CC(=O)Nc3c2c(C)nn3-c2nc3ccccc3[nH]2)cc(OC)c1O (stereo not given)	5.53	4.9	11.2	8.15	35.7	5.78	> 100	3.74 µM	> 100	16.8	2.12 µM	2.06 µM	3.15 µM	2.98 µM	6.48 µM	2.38 µM	3.45 µM	1.75 µM	4.67	3.05 µM
O=[N+]([O-])c1ccc2c(c1)C(c1ccccc1Cl)=Nc1c(n[nH]c1-c1cccnc1)N2	> 25	> 25	> 25	> 25	> 25	> 25	> 25	> 25 µM	> 25	> 25	> 25 µM	> 25 µM	> 25 µM	> 25 µM	> 25 µM	> 25 µM	> 25 µM	> 25 µM	> 25	> 25 µM
CC(C)Cc1ccc(C(C)C(=O)NCc2ccc(Cn3c(=O)sn(CCCI)c3=O)cc2)cc1 (stereo not given)	1.34	2.44	2.79	2.42	3.38	1.04	0.393	2.8 µM	> 100	> 22.7	0.429 µM	1.17 µM	1.32 µM	1.13 µM	1.75 µM	0.309 µM	0.134 µM	1.41 µM	0.388	0.775 µM
COC(=O)c1oc2c(C(=O)/C=C/c3ccc(OC)cc3)c(OCCN3CCOCC3)ccc2c1C	12.1	3.19	5.46	5.18	3.17	3.54	4.55	6.54 µM	4.82	4.29	3.11 µM	1.55 µM	1.91 µM	1.64 µM	1.64 µM	1.61 µM	1.6 µM	2.47 µM	1.44	1.44 µM
CN1C(=O)C2(c3ccccc31)C1CC3C(CO1)C1C2C3(CO)CN1C#N (stereo not given)	> 100	> 100	> 100	> 100	> 100	> 100	> 100	> 100 µM	> 100	> 100										

Reference: PubChem BioAssay (NCI)
